Data as given in PubChem BioAssay (NCI).
Values joined by “and” are separate entries in the source; they are usually repeats but may differ in a detail not shown here. Identical values can stand only once.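 Tested at 5 concentrations; 48 h exposure; 96-well plates; endpoints linearly interpolated, else capped at highest concentration. GI50: concentration for 50% inhibition of growth. TGI denotes the concentration required for complete inhibition of growth.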

Assays:
Assay in all cases: NCI tumour cell line growth inhibition, 48 h
OVCAR-3 ovarian = test system: OVCAR-3 ovarian
SNB-19 CNS = test system: SNB-19 CNS
SK-MEL-2 melanoma = test system: SK-MEL-2 melanoma
DU-145 prostate = test system: DU-145 prostate
UACC-257 melanoma = test system: UACC-257 melanoma
MCF7 breast = test system: MCF7 breast
RPMI-8226 leukemia = test system: RPMI-8226 leukemia
HOP-62 NSCLC = test system: HOP-62 NSCLC
KM12 colon = test system: KM12 colon
BT-549 breast = test system: BT-549 breast
NCI-H522 lung = test system: NCI-H522 lung
SF-268 CNS = test system: SF-268 CNS
A549 NSCLC = test system: A549 NSCLC
SK-MEL-5 melanoma = test system: SK-MEL-5 melanoma
SF-295 CNS = test system: SF-295 CNS
NCI-H460 lung = test system: NCI-H460 lung
NCI-H226 lung = test system: NCI-H226 lung
EKVX NSCLC = test system: EKVX NSCLC
SW-620 colon = test system: SW-620 colon
CAKI-1 renal = test system: CAKI-1 renal
U251 CNS = test system: U251 CNS
M14 melanoma = test system: M14 melanoma
OVCAR-4 ovarian = test system: OVCAR-4 ovarian
T-47D breast = test system: T-47D breast
RXF 393 renal = test system: RXF 393 renal
PC-3 prostate = test system: PC-3 prostate
LOX IMVI melanoma = test system: LOX IMVI melanoma
COLO 205 colon = test system: COLO 205 colon
786-0 renal = test system: 786-0 renal
MDA-MB-231 breast = test system: MDA-MB-231 breast
A498 renal = test system: A498 renal
MDA-N = test system: MDA-N
NCI/ADR-RES ovarian = test system: NCI/ADR-RES ovarian
NCI-H23 lung = test system: NCI-H23 lung
HT29 colon = test system: HT29 colon
MOLT-4 leukemia = test system: MOLT-4 leukemia
IGROV1 ovarian = test system: IGROV1 ovarian
ACHN renal = test system: ACHN renal
HCC-2998 colon = test system: HCC-2998 colon
OVCAR-8 ovarian = test system: OVCAR-8 ovarian
UACC-62 melanoma = test system: UACC-62 melanoma
SNB-75 CNS = test system: SNB-75 CNS
CCRF-CEM leukemia = test system: CCRF-CEM leukemia
HOP-92 NSCLC = test system: HOP-92 NSCLC
SK-MEL-28 melanoma = test system: SK-MEL-28 melanoma
MDA-MB-435 = test system: MDA-MB-435
HL-60(TB) leukemia = test system: HL-60(TB) leukemia
TK-10 renal = test system: TK-10 renal
OVCAR-5 ovarian = test system: OVCAR-5 ovarian
K-562 leukemia = test system: K-562 leukemia
HS 578T breast = test system: HS 578T breast
SN12C renal = test system: SN12C renal
HCT-116 colon = test system: HCT-116 colon
UO-31 renal = test system: UO-31 renal
HCT-15 colon = test system: HCT-15 colon
SR leukemia = test system: SR leukemia
SF-539 CNS = test system: SF-539 CNS
MALME-3M melanoma = test system: MALME-3M melanoma
SK-OV-3 ovarian = test system: SK-OV-3 ovarian

SMILES: C=C(C)C1CC=C(C)C2(C1)OCC(C)(C)C(C)O2 (stereo not given)
- TGI (OVCAR-3 ovarian): 29.9 µM
- TGI (SNB-19 CNS): 33.3 µM
- TGI (SK-MEL-2 melanoma): 34.2 µM
- TGI (DU-145 prostate): > 100 µM
- TGI (UACC-257 melanoma): 81.9 µM
- TGI (MCF7 breast): 33.9 µM
- TGI (RPMI-8226 leukemia): 43.2 µM
- TGI (HOP-62 NSCLC): 31.8 µM
- TGI (KM12 colon): 32.9 µM
- TGI (BT-549 breast): 36 µM
- TGI (NCI-H522 lung): 46.4 µM
- TGI (SF-268 CNS): 70.9 µM
- TGI (A549 NSCLC): 34.5 µM
- TGI (SK-MEL-5 melanoma): 29.2 µM
- TGI (SF-295 CNS): 48.2 µM
- TGI (NCI-H460 lung): > 100 µM
- TGI (NCI-H226 lung): 35.7 µM
- TGI (EKVX NSCLC): 62.3 µM
- TGI (SW-620 colon): 43.2 µM
- TGI (CAKI-1 renal): 36.7 µM
- TGI (U251 CNS): 31 µM
- TGI (M14 melanoma): 47.1 µM
- TGI (OVCAR-4 ovarian): 41.1 µM
- TGI (T-47D breast): 55.4 µM
- TGI (RXF 393 renal): 27.3 µM
- TGI (PC-3 prostate): > 100 µM
- TGI (LOX IMVI melanoma): 31.8 µM
- TGI (COLO 205 colon): 34.5 µM
- TGI (786-0 renal): 33 µM
- TGI (MDA-MB-231 breast): 46.3 µM
- TGI (A498 renal): 28.9 µM
- TGI (MDA-N): 47.4 µM
- TGI (NCI/ADR-RES ovarian): 37.5 µM
- TGI (NCI-H23 lung): 48.4 µM
- TGI (HT29 colon): 33.2 µM
- TGI (MOLT-4 leukemia): 51.2 µM
- TGI (IGROV1 ovarian): 48.2 µM
- TGI (ACHN renal): 40.9 µM
- TGI (HCC-2998 colon): 93.2 µM
- TGI (OVCAR-8 ovarian): 31.7 µM
- TGI (UACC-62 melanoma): 30.4 µM
- TGI (SNB-75 CNS): 48.2 µM
- TGI (CCRF-CEM leukemia): 83.4 µM
- TGI (HOP-92 NSCLC): 23.6 µM
- TGI (SK-MEL-28 melanoma): 63.9 µM
- TGI (MDA-MB-435): 48 µM
- TGI (HL-60(TB) leukemia): 35.5 µM
- TGI (TK-10 renal): > 100 µM
- TGI (OVCAR-5 ovarian): 38.5 µM
- TGI (K-562 leukemia): 45.8 µM
- TGI (HS 578T breast): > 100 µM
- TGI (SN12C renal): 33.4 µM
- TGI (HCT-116 colon): 31.1 µM
- TGI (UO-31 renal): 40.8 µM
- TGI (HCT-15 colon): 33.9 µM
- TGI (SR leukemia): 43.6 µM
- TGI (SF-539 CNS): 48 µM
- TGI (MALME-3M melanoma): 29.5 µM
- TGI (SK-OV-3 ovarian): 53.7 µM

SMILES: CCN(CC)CCNc1n[n+]([O-])c2ccccc2[n+]1[O-]
- TGI (OVCAR-3 ovarian): 26.2 µM
- TGI (SNB-19 CNS): > 72.1 µM and 56 µM
- GI50 (SK-MEL-2 melanoma): 2.34 µM and 5.13 µM
- TGI (SK-MEL-2 melanoma): 13.2 µM and 19.1 µM
- TGI (DU-145 prostate): 48.4 µM and 47.9 µM
- GI50 (UACC-257 melanoma): 8.39 µM and 3.54 µM
- TGI (UACC-257 melanoma): 18.3 µM and 20.4 µM
- GI50 (MCF7 breast): 5.43 µM and 2.55 µM
- TGI (MCF7 breast): 37.6 µM and 26.2 µM
- TGI (RPMI-8226 leukemia): 18.9 µM and 20.5 µM
- TGI (HOP-62 NSCLC): 20 µM
- TGI (KM12 colon): 25.2 µM and 29 µM
- TGI (BT-549 breast): 34.2 µM and 74.1 µM
- GI50 (NCI-H522 lung): 3.85 µM and 7.95 µM
- TGI (NCI-H522 lung): 17.3 µM and 22.9 µM
- TGI (SF-268 CNS): 48.4 µM and > 100 µM
- GI50 (A549 NSCLC): 5.07 µM and 10.2 µM
- TGI (A549 NSCLC): 22.3 µM and 29.6 µM
- TGI (SK-MEL-5 melanoma): 4.86 µM and 3.31 µM
- TGI (SF-295 CNS): 39.5 µM and 23.9 µM
- GI50 (NCI-H460 lung): 3940 nM and 1540 nM
- TGI (NCI-H460 lung): 38.4 µM and 12.6 µM
- TGI (NCI-H226 lung): 23.7 µM and 29.9 µM
- TGI (EKVX NSCLC): 44 µM
- TGI (SW-620 colon): 82 µM and 55.9 µM
- GI50 (CAKI-1 renal): 2.89 µM and 6.81 µM
- TGI (U251 CNS): > 52.4 µM and 36.9 µM
- TGI (M14 melanoma): 21 µM and 28.7 µM
- TGI (OVCAR-4 ovarian): 11.2 µM and 73.6 µM
- TGI (T-47D breast): 36.4 µM and 27.5 µM
- TGI (RXF 393 renal): 25.4 µM and 42.7 µM
- TGI (PC-3 prostate): > 100 µM
- TGI (LOX IMVI melanoma): 28.3 µM
- TGI (COLO 205 colon): 19.9 µM and 26 µM
- TGI (786-0 renal): 64.5 µM and 21 µM
- GI50 (MDA-MB-231 breast): 6.08 µM and 2.83 µM
- TGI (MDA-MB-231 breast): 27.3 µM and 20.7 µM
- GI50 (A498 renal): 5.47 µM and 2.54 µM
- TGI (A498 renal): 9.39 µM and 9.85 µM
- TGI (MDA-N): > 100 µM and 31.8 µM
- TGI (NCI/ADR-RES ovarian): 85.6 µM and > 100 µM
- GI50 (NCI-H23 lung): 4.31 µM and 9.76 µM
- TGI (NCI-H23 lung): 19 µM and 33.7 µM
- TGI (HT29 colon): 39.2 µM and 42.7 µM
- TGI (MOLT-4 leukemia): 5.12 µM and 5.07 µM
- TGI (IGROV1 ovarian): 10.3 µM and 17 µM
- TGI (ACHN renal): 18.4 µM and 21.1 µM
- TGI (HCC-2998 colon): 6.12 µM and 14.5 µM
- TGI (OVCAR-8 ovarian): 31.1 µM and 27 µM
- TGI (UACC-62 melanoma): 22.2 µM and 21.2 µM
- GI50 (SNB-75 CNS): 4.07 µM and 14.8 µM
- TGI (SNB-75 CNS): 45.3 µM and 55.4 µM
- TGI (CCRF-CEM leukemia): 13.7 µM and 30.6 µM
- GI50 (HOP-92 NSCLC): 2.28 µM and 7.45 µM
- TGI (HOP-92 NSCLC): > 21.8 µM and 46.6 µM
- TGI (SK-MEL-28 melanoma): > 100 µM
- TGI (MDA-MB-435): 50 µM and > 100 µM
- TGI (HL-60(TB) leukemia): 7.61 µM and 8.95 µM
- TGI (TK-10 renal): > 68.5 µM and 41.8 µM
- TGI (OVCAR-5 ovarian): 38.6 µM and 35.8 µM
- TGI (K-562 leukemia): 6.45 µM and 18.5 µM
- TGI (HS 578T breast): 97.5 µM
- TGI (SN12C renal): 19.1 µM and 18.9 µM
- TGI (HCT-116 colon): 26.6 µM and 31 µM
- TGI (UO-31 renal): > 79.4 µM and 57.1 µM
- TGI (HCT-15 colon): 26.1 µM and 25 µM
- GI50 (SR leukemia): 2.92 µM and 6.7 µM
- TGI (SR leukemia): 6.87 µM and 28.7 µM
- TGI (SF-539 CNS): 25.7 µM and 42.9 µM
- TGI (MALME-3M melanoma): 20.7 µM and 20.8 µM
- TGI (SK-OV-3 ovarian): 32.4 µM
